{"source": "paper PMC3920255", "about": "(Toxins, 2013)", "note": "Numbered stars: 1 amine (or outer) side, 2 acyl side, 3 side chain; on linkers, the order of the positions; unused ones are H or OH. Bridge positions count the residues as written; N and C are the ends. Square brackets hold non-standard residues; d marks the D form. Peptide text beside a SMILES is read from it. Adda = CO[C@@H](Cc1ccccc1)[C@@H](C)/C=C(C)/C=C/[C@H](N[*:1])[C@H](C)C(=O)[*:2]; dAsp(3S-Me) = C[C@H](C(=O)[*:3])[C@@H](N[*:1])C(=O)[*:2]; d(γGlu) = O=C(O)[C@@H](CCC(=O)[*:2])N[*:1]; NMeDha = C=C(NC)C(=O)O; Dha = C=C(N)C(=O)O", "data": [{"test_system": "primary cultured rat hepatocytes", "conditions": "not given", "units": {"IC50 (concentration showing 50% cell viability)": "µg/mL"}, "values": [{"smiles": "C=C1C(=O)N[C@H](C)C(=O)N[C@@H](CC(C)C)C(=O)N[C@@H](C(=O)O)[C@H](C)C(=O)N[C@@H](CCCNC(=N)N)C(=O)N[C@@H](/C=C/C(C)=C/[C@H](C)[C@H](Cc2ccccc2)OC)[C@H](C)C(=O)N[C@@H](C(=O)O)CCC(=O)N1C", "note": "[No.1, MC-LR, reference compound] (R[Adda][d(γGlu)][NMeDha][dA]L[dAsp(3S-Me)]-OH; lactam N-7)", "IC50 (concentration showing 50% cell viability)": 0.800}, {"smiles": "C=C1NC(=O)CC[C@H](C(=O)O)NC(=O)[C@@H](C)[C@H](/C=C/C(C)=C/[C@H](C)[C@H](Cc2ccccc2)OC)NC(=O)[C@H](CCCNC(=N)N)NC(=O)[C@@H](C)[C@H](C(=O)O)NC(=O)[C@H](CC(C)C)NC(=O)[C@@H](C)NC1=O", "note": "[No.2, [Dha^7] MC-LR] (R[Adda][d(γGlu)][Dha][dA]L[dAsp(3S-Me)]-OH; lactam N-7)", "IC50 (concentration showing 50% cell viability)": 0.217}, {"smiles": "C=C1C(=O)N[C@H](C)C(=O)N[C@@H](CC(C)C)C(=O)N[C@@H](C(=O)O)CC(=O)N[C@@H](CCCNC(=N)N)C(=O)N[C@@H](/C=C/C(C)=C/[C@H](C)[C@H](Cc2ccccc2)OC)[C@H](C)C(=O)N[C@@H](C(=O)O)CCC(=O)N1C", "note": "[No.3, [D-Asp^3] MC-LR]", "IC50 (concentration showing 50% cell viability)": 0.217}, {"smiles": "C=C1NC(=O)CC[C@H](C(=O)O)NC(=O)[C@@H](C)[C@H](/C=C/C(C)=C/[C@H](C)[C@H](Cc2ccccc2)OC)NC(=O)[C@H](CCCNC(=N)N)NC(=O)C[C@H](C(=O)O)NC(=O)[C@H](CC(C)C)NC(=O)[C@@H](C)NC1=O", "note": "[No.4, [D-Asp^3, Dha^7] MC-LR]", "IC50 (concentration showing 50% cell viability)": 0.217}, {"smiles": "C/C=C1/NC(=O)CC[C@H](C(=O)O)NC(=O)[C@@H](C)[C@H](/C=C/C(C)=C/[C@H](C)[C@H](Cc2ccccc2)OC)NC(=O)[C@H](CCCNC(=N)N)NC(=O)C[C@H](C(=O)O)NC(=O)[C@H](CC(C)C)NC(=O)[C@@H](C)NC1=O", "note": "[No.5, [D-Asp^3, E-Dhb^7] MC-LR]", "IC50 (concentration showing 50% cell viability)": 0.133}, {"smiles": "C/C=C1\\NC(=O)CC[C@H](C(=O)O)NC(=O)[C@@H](C)[C@H](/C=C/C(C)=C/[C@H](C)[C@H](Cc2ccccc2)OC)NC(=O)[C@H](CCCNC(=N)N)NC(=O)C[C@H](C(=O)O)NC(=O)[C@H](CC(C)C)NC(=O)[C@@H](C)NC1=O", "note": "[No.6, [D-Asp^3, Z-Dhb^7] MC-LR]", "IC50 (concentration showing 50% cell viability)": 0.053}, {"smiles": "C=C1C(=O)N[C@H](C)C(=O)N[C@@H](Cc2ccc(O)cc2)C(=O)N[C@@H](C(=O)O)[C@H](C)C(=O)N[C@@H](CCCNC(=N)N)C(=O)N[C@@H](/C=C/C(C)=C/[C@H](C)[C@H](Cc2ccccc2)OC)[C@H](C)C(=O)N[C@@H](C(=O)O)CCC(=O)N1C", "note": "[No.7, MC-YR] (R[Adda][d(γGlu)][NMeDha][dA]Y[dAsp(3S-Me)]-OH; lactam N-7)", "IC50 (concentration showing 50% cell viability)": 1.48}, {"smiles": "C=C1NC(=O)CC[C@H](C(=O)O)NC(=O)[C@@H](C)[C@H](/C=C/C(C)=C/[C@H](C)[C@H](Cc2ccccc2)OC)NC(=O)[C@H](CCCNC(=N)N)NC(=O)[C@@H](C)[C@H](C(=O)O)NC(=O)[C@H](Cc2ccc(O)cc2)NC(=O)[C@@H](C)NC1=O", "note": "[No.8, [Dha^7] MC-YR] (R[Adda][d(γGlu)][Dha][dA]Y[dAsp(3S-Me)]-OH; lactam N-7)", "IC50 (concentration showing 50% cell viability)": 0.418}, {"smiles": "C=C1C(=O)N[C@H](C)C(=O)N[C@@H](CCCNC(=N)N)C(=O)N[C@@H](C(=O)O)[C@H](C)C(=O)N[C@@H](CCCNC(=N)N)C(=O)N[C@@H](/C=C/C(C)=C/[C@H](C)[C@H](Cc2ccccc2)OC)[C@H](C)C(=O)N[C@@H](C(=O)O)CCC(=O)N1C", "note": "[No.12, MC-RR] (R[Adda][d(γGlu)][NMeDha][dA]R[dAsp(3S-Me)]-OH; lactam N-7)", "IC50 (concentration showing 50% cell viability)": ">10"}, {"smiles": "C=C1NC(=O)CC[C@H](C(=O)O)NC(=O)[C@@H](C)[C@H](/C=C/C(C)=C/[C@H](C)[C@H](Cc2ccccc2)OC)NC(=O)[C@H](CCCNC(=N)N)NC(=O)[C@@H](C)[C@H](C(=O)O)NC(=O)[C@H](CCCNC(=N)N)NC(=O)[C@@H](C)NC1=O", "note": "[No.14, [Dha^7] MC-RR] (R[Adda][d(γGlu)][Dha][dA]R[dAsp(3S-Me)]-OH; lactam N-7)", "IC50 (concentration showing 50% cell viability)": 5.33}, {"smiles": "C=C1NC(=O)CC[C@H](C(=O)O)NC(=O)[C@@H](C)[C@H](/C=C/C(C)=C/[C@H](C)[C@H](Cc2ccccc2)OC)NC(=O)[C@H](CCCNC(=N)N)NC(=O)C[C@H](C(=O)O)NC(=O)[C@H](CCCNC(=N)N)NC(=O)[C@@H](C)NC1=O", "note": "[No.15, [D-Asp^3, Dha^7] MC-RR]", "IC50 (concentration showing 50% cell viability)": 4.11}]}, {"test_system": "primary cultured rat hepatocytes", "conditions": "72 h", "units": {"IC50 (concentration showing 50% cell viability)": "µg/mL"}, "values": [{"smiles": "C=C1C(=O)N[C@H](C)C(=O)N[C@@H](CCc2ccc(O)cc2)C(=O)N[C@@H](C(=O)O)CC(=O)N[C@@H](CCCNC(=N)N)C(=O)N[C@@H](/C=C/C(C)=C/[C@H](C)[C@H](Cc2ccccc2)OC)[C@H](C)C(=O)N[C@@H](C(=O)O)CCC(=O)N1C", "note": "[No.9, [D-Asp^3] MC-HtyR]", "IC50 (concentration showing 50% cell viability)": 0.347}, {"smiles": "C/C=C1/NC(=O)CC[C@H](C(=O)O)NC(=O)[C@@H](C)[C@H](/C=C/C(C)=C/[C@H](C)[C@H](Cc2ccccc2)OC)NC(=O)[C@H](CCCNC(=N)N)NC(=O)C[C@H](C(=O)O)NC(=O)[C@H](CCc2ccc(O)cc2)NC(=O)[C@@H](C)NC1=O", "note": "[No.10, [D-Asp^3, E-Dhb^7] MC-HtyR]", "IC50 (concentration showing 50% cell viability)": 0.327}, {"smiles": "C/C=C1\\NC(=O)CC[C@H](C(=O)O)NC(=O)[C@@H](C)[C@H](/C=C/C(C)=C/[C@H](C)[C@H](Cc2ccccc2)OC)NC(=O)[C@H](CCCNC(=N)N)NC(=O)C[C@H](C(=O)O)NC(=O)[C@H](CCc2ccc(O)cc2)NC(=O)[C@@H](C)NC1=O", "note": "[No.11, [D-Asp^3, Z-Dhb^7] MC-HtyR]", "IC50 (concentration showing 50% cell viability)": 0.120}]}, {"test_system": "primary rat hepatocytes", "conditions": "cited from earlier work", "units": {"IC50 of MC-LR to primary rat hepatocytes, earlier study": "µg/mL"}, "values": [{"smiles": "C=C1C(=O)N[C@H](C)C(=O)N[C@@H](CC(C)C)C(=O)N[C@@H](C(=O)O)[C@H](C)C(=O)N[C@@H](CCCNC(=N)N)C(=O)N[C@@H](/C=C/C(C)=C/[C@H](C)[C@H](Cc2ccccc2)OC)[C@H](C)C(=O)N[C@@H](C(=O)O)CCC(=O)N1C", "note": "[No.1, MC-LR, reference compound] (R[Adda][d(γGlu)][NMeDha][dA]L[dAsp(3S-Me)]-OH; lactam N-7)", "IC50 of MC-LR to primary rat hepatocytes, earlier study": 0.048}]}]}
